{"source": "paper PMC9583845", "about": "“Characterization of the chicken melanocortin 5 receptor and its potential role in regulating hepatic glucolipid metabolism” (Frontiers in Physiology, 2022)", "key": {"[1]": {"tested_on": "FASN mRNA, primary chicken hepatocytes", "test": "FASN mRNA in primary chicken hepatocytes, RT-qPCR", "format": "cell-based", "settings": "0.1–100 nM, 6 h, N = 4, Figure 8H, listed as not decreased", "protocol": "(§1) To evaluate the effect of ACTH1-39 on chicken liver, the chicken hepatocytes were prepared and maintained as a monolayer culture. Briefly, one-month-old male chicken hepatocytes were isolated by perfusion of a liver with Ca^2+-free KRB buffer to remove blood cells, and being digested with 0.25% collagenase-I for 10 min. Hepatocytes were obtained following filtering and washing using M199 medium. Then the hepatocytes were plated in a Corning CellBIND 48-well microplate (Corning, NY, cat. no.3338) with M199 medium containing 100 U/ml penicillin and […] streptomycin (Gibco), 5 μg/ml bovine insulin (Sigma), and 5% FBS at 37°C in a 5% CO2 atmosphere. To adhere to the wall, the cells were incubated on the 48-well plate for 4 h.\n(§2) For quantitative real-time PCR, primary cultured chicken hepatocytes were treated with various concentrations of ACTH1-39 (or other composition) at 37°C for 6 h. The relative amount of mRNA was calculated using the comparative Ct method. Chicken β-actin gene was used as the reference gene. Amplification of specific transcripts was confirmed by analyzing the melting curve profile performed at the end of each run and by determining the size of the PCR products using agarose electrophoresis and ethidium bromide staining."}, "chicken MC3R": {"tested_on": "chicken MC3R", "set-up": "method as in Zhang et al., 2017; Thomas et al., 2018", "settings": "ref Zhang et al., 2017; Thomas et al., 2018; cited from earlier work"}, "chicken MC1R": {"tested_on": "chicken MC1R", "set-up": "method as in Ling et al., 2003; Ling et al., 2004; Mundy, 2005", "settings": "ref Ling et al., 2003, 2004, Mundy, 2005; cited from earlier work"}, "chicken MC4R": {"tested_on": "chicken MC4R", "set-up": "method as in Zhang et al., 2017; Thomas et al., 2018", "settings": "ref Zhang et al., 2017; Thomas et al., 2018; cited from earlier work"}, "[2]": {"tested_on": "THRSPA mRNA, primary chicken hepatocytes", "test": "THRSPA mRNA in primary chicken hepatocytes, RT-qPCR", "format": "cell-based", "settings": "6 h, N = 4, Figures 8D-F", "protocol": "as §1, §2"}, "[3]": {"tested_on": "CREB phosphorylation (cMC5R)", "test": "CREB phosphorylation, western blot, CHO cells expressing cMC5R", "format": "cell-based, chicken", "settings": "10 nM, 10 min; p-CREB normalized by total CREB; three independent experiments; Figure 2D", "protocol": "To investigate whether the activation of cMC5R can enhance CREB phosphorylation, 100 ng of cMC5R expression plasmid, or an empty pcDNA3.1 (+) vector, was transfected into CHO cells cultured in a 24-well plate (Nunc) using jetPRIME transfection reagent (Polyplus Transfection). After 24 h transfection, ACTH (10 nM) or α-MSH (10 nM) was added to treat the cells for 10 min. Then the whole-cell lysates were used to examine the level of phosphorylated CREB using western blot. The level of total CREB protein was also examined and used as internal controls in each experiment. The phosphorylated CREB (p-CREB) and total CREB levels were quantified by densitometric analysis with ImageJ software. Relative optical densities of p-CREB normalized by CREB levels compared to the densities in the absence of ACTH (or α-MSH) are shown as relative p-CREB/CREB expression (fold changes)."}}, "data": [{"substance": "H-SYSMEHFRWGKPVGRKRRPIKVYPNGVDEESAESYPMEF-OH [ACTH1-39]", "values": [{"measurement": "FASN mRNA expression", "setting": "[1]", "value": "instead of ACACA, FASN and SCD"}, {"measurement": "activation of chicken MC3R", "setting": "chicken MC3R", "value": "activated by both α-MSH and ACTH"}, {"measurement": "MC1R response", "setting": "chicken MC1R", "value": "promoting intracellular cAMP accumulation"}, {"measurement": "activation of chicken MC4R", "setting": "chicken MC4R", "value": "activated by both α-MSH and ACTH"}, {"measurement": "THRSPA mRNA expression", "setting": "[2]", "value": "dose-dependently decreased"}, {"measurement": "CREB phosphorylation", "setting": "[3]", "value": "significantly increased"}]}]}
